Assay results reported in US9713605B2, “Ameliorative or preventive effect of Antrodia cinnamomea in arthritis, cartilage destruction, or chondrocyte death” (Simpson Biotech Co., Ltd., priority 2011, dated 2017).

Experiments:
[1] = system: collagen antibody-induced arthritis (CAIA) in BALB/c mice; assay: Histopathological arthritis score of ankle joints in CAIA; assay type: in vivo; details: ankle joint harvested on day 10; mean±SEM; arthritis group 4.178±0.2023
Source text: (§1) An arthritogenic monoclonal antibody (mAb) cocktail and lipopolysaccharide (LPS) were purchased from Immuno-Biological Laboratories (Hamburg, Germany). Arthritis was induced by the method of Terato et al. (Terato et al., Induction of arthritis with monoclonal antibodies to collagen. J Immunol. 1992 Apr. 1; 148(7):2103-8), using an arthritogenic mAb cocktail that contained four mAbs (F10, A2, D8, and D1) in equal amounts and using LPS as adjuvant. Three clones (F10, A2, and D8) were of type IgG2a, and one clone (D1) was type IgG2b. To induce arthritis, each mouse was injected intravenously with 2 mg of anti-CII mAbs followed by an intraperitoneal injection of 50 μg (BALB/c background) LPS (Escherichia coli 0111:B4) three days later. Isotype IgG (anti-mouse IgG, 2 mg, Jackson Lab.) supplied with LPS and only LPS induction groups were applied in same condition.
The ankle joints were fixed in 10% formalin, decalcified, trimmed, and embedded. Sections were prepared from the tissue blocks and stained with hematoxylin and eosin. Histopathological scoring was performed as described below. Ankle joints of arthritic mice were given arthritis scores of 0, 1, 2, 3, 4, and 5 to describe the arthritis according to the following criteria: 0, normal; 1, minimal infiltration of polymorphonuclear leukocytes in the periarticular area; 2, mild infiltration; 3, moderate infiltration; 4, marked infiltration; and 5, severe infiltration (Doherty, 2001. Risk factors for progression of knee osteoarthritis. Lancet 358:775-6). Three independent observers scored each slide, and the average score was used.
(§2) Data were analyzed by the Mann-Whitney U test and were expressed as mean±SEM. A P value <0.05 was considered significant.
(§3) In each group, the subjects were given the sample once daily ([…]) since day 0 to day 9 via oral intake and the subjects was administrated before the antibody and LPS injection.

[2] = system: IL-1β; assay: Relative expression level of IL-1β mRNA in footpad (quantitative PCR) in CAIA; assay type: in vivo, mice; details: day 10, mean±SEM, arthritis group 41.13±6.465
Source text: as §1
Total RNA was isolated using the Trizol method. Footpad tissues were homogenized in Trizol lysis buffer followed by chloroform extraction (Life Technologies). The RNA was eluted with 20 μl of RNase-free water. All RNA was quantified by spectrophotometer, and the optical density (OD) 260/280 nm ratio was determined. For cDNA synthesis, 5 μg total RNA was reverse transcribed at 50° C. for 60 min using 200 units of Superscript III reverse transcriptase (Invitrogen). The primer sequence was as follows: IL1-β, forward primer (5′-[…]), reverse primer (5′-CTCGCAGCAGCACATCAAC); and GAPDH, forward primer (5′-[…]), reverse primer (5′-[…]). The SYBR Green master mix kit (Bio-Rad) was used for all reactions with real-time PCR. Briefly, PCR was performed as follows: 94° C. for 2 min followed by 40 cycles of denaturation; annealing; and extension at 94° C. for 15 s, 64° C. for 30 s, and 72° C. for 45 s; and final extension at 72° C. for 10 min. The PCR reaction was performed in triplicate for each sample for all the products and for the GAPDH control. Ratios for each product relative to GAPDH mRNA were calculated for each sample. The data presented are expressed as the fold-increase or fold-decrease in mRNA level. For all real-time PCR assays, the products were run out on a gel to confirm the presence of a single band.
as §2, §3

[3] = system: collagen antibody-induced arthritis (CAIA) in BALB/c mice; assay: Footpad thickness change in acute stage of CAIA; assay type: in vivo; details: day 10; oral once daily day 0 to day 9; mean±SEM; arthritis group 1.0446±0.0369
Source text: (§4) Male BALB/cByJNarl (BALB/c) mice were purchased at age six weeks from National Laboratory Animal Center (Taiwan) and subsequently bred and maintained under specific pathogen-free conditions in the Laboratory Animal Center of National Defense Medical Center (Taipei, Taiwan).
as §1
(§5) Arthritis development was monitored in the four limbs using a macroscopic scoring system. Briefly, one point was given for each swollen or red toe; one point for each swollen joint (metatarsal-phalangeal joints, metacarpal-phalangeal joints, proximal interphalangeal joints, and distal interphalangeal joints); and five points for a swollen ankle (maximum score=15 per limb and 60 per mouse) (Nandakumar et al., Collagen type II (CII)-specific antibodies induce arthritis in the absence of T or B cells but the arthritis progression is enhanced by CII-reactive T cells. Arthritis Res. Ther. 6 (2004), R544-R550). The mice were examined on days 0, 3, 7, 10 and 14 after the mAb injection. The thickness of each paw was measured in a noncontact manner using a Simplified Geometry Measurement System (Advanced Design Research Technology Co., Ltd). Images of the paws of each mouse were recorded three times (Chia et al., A noncontact footpad thickness assay to evaluate rheumatoid disease. Rheumatol Int. 2010 February; 30(4):547-50). One trained researcher who was blinded to group treatments evaluated the image data independently.
as §2, §3

[4] = system: collagen antibody-induced arthritis (CAIA) in BALB/c mice; assay: Disease activity score (macroscopic scoring of four limbs) in acute stage of CAIA; assay type: in vivo; details: oral once daily; for disease activity score (maximum 60 per mouse): day 10, mean±SEM, arthritis group 53.71±2.763
Source text: as §4, §1, §5, §2, §3

[5] = system: cartilage destruction in ankle joints of arthritic mice; assay: Histopathological cartilage destruction score of ankle joints in CAIA; assay type: in vivo; details: ankle joint harvested on day 10; mean±SD; arthritis group 2.063±0.776
Source text: as §1
The ankle joints were fixed in 10% formalin, decalcified, trimmed, and embedded. Sections were prepared from the tissue blocks and stained with hematoxylin and eosin. Histopathological scoring was performed as described below. […] Two independent observers scored each slide, and the average score was used.
(§6) Data were analyzed by the t test and are expressed as mean±SD. […]

[6] = system: chondrocyte death in ankle joints of arthritic mice; assay: Histopathological chondrocyte death score of ankle joints in CAIA; assay type: in vivo; details: ankle joint harvested on day 10; mean±SD; arthritis group 1.929±0.450
Source text: as §1, with “Isotype IgG (anti-mouse IgG, 2 mg, Jackson Lab.) supplied with LPS and only LPS induction groups were applied in same condition.” left out
Ankle joints of arthritic mice were given chondrocyte death scores of 0, 1, 2, and 3 to describe the chondrocyte death according to the following criteria: 0, normal (FIG. 7A); 1, mild chondrocyte death (around less than ⅓ chondrocyte death in cartilage of all sections, FIGS. 7B, 7C); 2, moderate chondrocyte death (between ⅓ to ⅔ area chondrocyte death in the cartilage, FIG. 7D); 3, severe chondrocyte death (more than ⅔ chondrocyte death in the cartilage, FIG. 7E). Two independent observers scored each slide, and the average score was used.
as §6

SMILES	arthritis score (histopathological, 0-5) [1]	relative expression levels of IL-1β (relative to GAPDH mRNA) [2]	footpad thickness (average increase compared to baseline) [3]	disease activity score (maximum 60 per mouse) [4]	cartilage destruction score (0-3) [5]	chondrocyte death score (0-3) [6]	disease activity score, difference versus arthritis group ([4]; day 7)
CC(C)=CCOc1ccc(C2=C(CC(C)C)C(=O)OC2=O)cc1 [A group, 3-isobutyl-4-[4-(3-methyl-2-butenyloxy)phenyl]furan-2,5-dione]	2.093±0.541	39.61±3.849	0.840±0.139 mm	46.0±2.537	–	–	–
CC(C)=CCOc1ccc(C2=C(CC(C)C)C(=O)NC2=O)cc1 [B group, 3-isobutyl-4-[4-(3-methyl-2-butenyloxy)phenyl]-1H-pyrrol-2,5-dione]	–	16.873±4.82	0.837±0.177 mm	45.58±4.818	–	–	–
CC(C)=CCOc1ccc(C2=C(CC(C)C)C(=O)N(O)C2=O)cc1 [C group, 3-isobutyl-4-[4-(3-methyl-2-butenyloxy)phenyl]-1H-pyrrol-1-ol-2,5-dione]	3.25±0.421	20.714±4.751	0.8605±0.098 mm	47.718±3.581	1.000±0.467	0.58±0.555	–
CC(C)=CCOc1ccc([C@H]2C(=O)N(O)C(=O)[C@@H]2CC(C)C)cc1 (relative stereo) [D group, 3R*,4S*-1-hydroxy-3-isobutyl-4-[4-(3-methyl-2-butenyloxy)phenyl]pyrrolidine-2,5-dione]	3.458±0.559	10.141±2.765	0.729±0.114 mm	39.687±5.238	1.167±0.144	1.042±0.439	significant difference
